Source: ChEMBL document CHEMBL5120791, “Triterpenes from Pholiota populnea as Cytotoxic Agents and Chemosensitizers to Overcome Multidrug Resistance of Cancer Cells” (J Nat Prod, 2022)

Key:
COLO 205 = assay: Cytotoxicity against human COLO 205 cells assessed as reduction in cell viability measured after 24 hrs by MTT assay; assay type: functional, cell-based; conditions: COLO 205, 24 h
COLO 320 = assay: Cytotoxicity against human COLO 320 cells assessed as reduction in cell viability measured after 24 hrs by MTT assay; assay type: functional, cell-based; conditions: COLO 320, 24 h
[1] = target: ATP-dependent translocase ABCB1 (Homo sapiens, UniProt P08183); assay: Inhibition of P-gp in human COLO 320 cells assessed as potentiation of doxorubicin-induced cytotoxicity by measuring combination index measured after 72 hrs by checkerboard assay; assay type: cell-based; conditions: colo 320, 72 h
Chain of ATP-dependent translocase ABCB1 (P08183 whole entry): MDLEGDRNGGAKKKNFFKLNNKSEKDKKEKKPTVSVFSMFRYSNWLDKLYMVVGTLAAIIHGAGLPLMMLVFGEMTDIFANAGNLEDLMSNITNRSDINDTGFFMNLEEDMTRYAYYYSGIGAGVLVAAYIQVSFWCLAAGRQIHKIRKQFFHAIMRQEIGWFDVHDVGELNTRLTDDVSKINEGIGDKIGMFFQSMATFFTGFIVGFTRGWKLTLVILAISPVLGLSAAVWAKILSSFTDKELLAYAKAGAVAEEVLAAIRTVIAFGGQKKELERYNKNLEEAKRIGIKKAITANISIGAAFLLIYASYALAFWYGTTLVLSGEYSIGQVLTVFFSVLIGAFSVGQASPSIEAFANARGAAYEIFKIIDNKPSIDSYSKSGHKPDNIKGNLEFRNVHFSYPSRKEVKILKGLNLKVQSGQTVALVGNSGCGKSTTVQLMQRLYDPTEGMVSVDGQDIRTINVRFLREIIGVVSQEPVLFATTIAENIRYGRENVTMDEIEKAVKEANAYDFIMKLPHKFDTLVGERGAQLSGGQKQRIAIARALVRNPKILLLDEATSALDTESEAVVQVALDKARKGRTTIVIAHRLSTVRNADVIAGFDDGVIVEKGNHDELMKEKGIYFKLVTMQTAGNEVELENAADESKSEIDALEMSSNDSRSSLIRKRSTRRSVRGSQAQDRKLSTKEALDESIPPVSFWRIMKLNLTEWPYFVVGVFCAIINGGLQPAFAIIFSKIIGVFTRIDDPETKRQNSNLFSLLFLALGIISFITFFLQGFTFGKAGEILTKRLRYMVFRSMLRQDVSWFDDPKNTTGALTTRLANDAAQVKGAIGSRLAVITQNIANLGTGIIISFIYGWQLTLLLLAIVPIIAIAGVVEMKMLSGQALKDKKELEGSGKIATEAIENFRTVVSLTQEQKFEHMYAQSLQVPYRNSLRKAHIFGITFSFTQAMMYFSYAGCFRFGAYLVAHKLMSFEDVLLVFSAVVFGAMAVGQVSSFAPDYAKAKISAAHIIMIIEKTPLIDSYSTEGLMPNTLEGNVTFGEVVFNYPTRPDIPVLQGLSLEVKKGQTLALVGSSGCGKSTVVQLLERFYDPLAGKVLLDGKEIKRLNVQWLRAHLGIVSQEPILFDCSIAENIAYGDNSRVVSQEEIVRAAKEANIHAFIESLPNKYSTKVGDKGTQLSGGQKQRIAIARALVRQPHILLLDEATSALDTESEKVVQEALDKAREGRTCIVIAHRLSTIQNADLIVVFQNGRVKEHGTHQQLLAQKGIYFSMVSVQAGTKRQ

How did the IC50 (COLO 205) turn out when `CC(C)[C@@H](C)/C=C/[C@@H](C)[C@H]1CC[C@H]2C3=CC[C@H]4CC(=O)CC[C@]4(C)[C@H]3CC[C@]12C` was run?
The IC50 was 11.6 µM.

What about the IC50 (COLO 320) of the same compound?
Its IC50 is 8.4 µM.

And the CI50 [1]?
The CI50 was 0.521.
